Source: paper PMC6550521, “Stress-Induced Changes in the Lipid Microenvironment of β-(1,3)-D-Glucan Synthase Cause Clinically Important Echinocandin Resistance in Aspergillus fumigatus” (mBio, 2019)

How the values were obtained:
fks1 expression in RG101 = test: fks1 expression by RT-PCR; assay type: cell-based, Aspergillus fumigatus; settings: RG101, 16 h in YPD, CAS 1 and 4 μg/ml
Protocol: Supplementary file : FIG S1 fks1 expression levels in RG101 under uninduced and CAS-induced conditions. RG101 conidia were grown for 16 h in YPD in the absence and presence of CAS (1 and 4 μg/ml), and expression levels of fks1 were compared using reverse transcription-PCR (RT-PCR). […] Download FIG S1, DOCX file, 0.02 MB.

A. fumigatus ATCC 13073 [1] = test: Antifungal susceptibility testing (MEC, CLSI M38-A2); assay type: cell-based, Aspergillus fumigatus
Protocol: (§1) Minimum effective concentrations (MECs) for A. fumigatus strains were determined according to CLSI document M38-A2 ([48]) and defined as the lowest drug concentration that led to the growth of small, rounded, compact hyphal forms compared to the hyphal growth seen in the drug-free growth control wells. The following drugs (supplier) were tested: caspofungin (Merck & Co., Inc.), micafungin (Astellas Pharma US, Inc.), anidulafungin (Pfizer Inc.), itraconazole (Sigma-Aldrich), voriconazole (Pfizer Inc.), and amphotericin B (Sigma-Aldrich). In addition, rezafungin and ibrexafungerp were obtained from Cidara Therapeutics and Scynexis Inc., respectively.

[2] = tested on: A. fumigatus S679P (fks1 Ser-679-Pro mutant); test: as above; assay type: cell-based, Aspergillus fumigatus; settings: S679P, fks1 Ser-679-Pro
Protocol: as §1

[3] = molecular target: β-(1,3)-D-glucan synthase of clinical isolate 117 (Aspergillus fumigatus, UniProt Q4WLT4); test: Glucan synthase kinetic inhibition assay, enzyme from clinical isolate 117; assay type: biochemical; settings: enzyme from isolate 117 grown at 4 μg/ml CAS
[4] = molecular target: β-(1,3)-D-glucan synthase of clinical isolate 32458 (Aspergillus fumigatus, UniProt Q4WLT4); test: Glucan synthase kinetic inhibition assay, enzyme from clinical isolate 32458; assay type: biochemical; settings: enzyme from isolate 32458 grown at 4 μg/ml CAS
[5] = molecular target: β-(1,3)-D-glucan synthase of clinical isolate 2770 (Aspergillus fumigatus, UniProt Q4WLT4); test: Glucan synthase kinetic inhibition assay, enzyme from clinical isolate 2770; assay type: biochemical; settings: enzyme from isolate 2770 grown at 4 μg/ml CAS
A. fumigatus RG101 = test: Electron microscopy (SEM, TEM) of cell wall ultrastructure; assay type: cell-based, Aspergillus fumigatus; settings: CAS 4 μg/ml, 16 h, SEM and TEM
Protocol: (§2) Scanning electron microscopy (SEM) and transmission electron microscopy (TEM) methods were followed as described previously ([49]) and in Text S1.
(§3) For SEM, mycelia of ATCC 13073 and RG101 were grown in the absence and presence of CAS (4 µg/mL) and were fixed with 2.5% (v/v) glutaraldehyde in 0.1 M cacodylate buffer (pH 7.4) at room temperature for 3 h. After being washed with 0.1 M cacodylate buffer, specimens were post-fixed for 1 h with 1% osmium tetroxide in 0.1 M cacodylate buffer (pH 7.4) at 4 °C. Samples were dehydrated in graded ethanol, and then critical point dried in liquid carbon dioxide and sputter-coated with a thin layer of palladium–gold. Observations were carried out using Hitachi S-3400 N scanning electron microscope.
(§4) For TEM, cultures were fixed with 2.5% (v/v) glutaraldehyde solution as described above. They were then post-fixed for 1 h with 1% (w/v) osmium tetroxide in 0.1 M cacodylate buffer (pH 7.4) at 4 °C. After three wash steps in buffer, specimens were dehydrated in a series of graded ethanol and embedded in Embed 812. Thin sections were stained with uranyl acetate followed by lead nitrate and examined in a Hitachi H-7500 electron microscope operated at 100 KV.

A. fumigatus ATCC 13073 [6] = test: as above; assay type: cell-based, Aspergillus fumigatus; settings: CAS 4 μg/ml, 16 h, SEM and TEM
Protocol: as §2, §3, §4

[7] = tested on: Aspergillus fumigatus clinical isolate 68284B; test: Antifungal susceptibility testing (MEC, CLSI M38-A2); assay type: cell-based; settings: fks1 WT
Protocol: as §1

[8] = tested on: Aspergillus fumigatus clinical isolate 2770; test: as above; assay type: cell-based; settings: clinical isolate 2770, fks1 WT
Protocol: as §1

[9] = tested on: Aspergillus fumigatus clinical isolate 32315; test: as above; assay type: cell-based; settings: clinical isolate 32315, fks1 WT
Protocol: as §1

[10] = tested on: Aspergillus fumigatus clinical isolate 32458; test: as above; assay type: cell-based; settings: clinical isolate 32458, fks1 WT
Protocol: as §1

[11] = tested on: Aspergillus fumigatus clinical isolate 117; test: as above; assay type: cell-based; settings: clinical isolate 117, fks1 WT
Protocol: as §1

Chain of β-(1,3)-D-glucan synthase of clinical isolate 2770 (Q4WLT4 1-1904): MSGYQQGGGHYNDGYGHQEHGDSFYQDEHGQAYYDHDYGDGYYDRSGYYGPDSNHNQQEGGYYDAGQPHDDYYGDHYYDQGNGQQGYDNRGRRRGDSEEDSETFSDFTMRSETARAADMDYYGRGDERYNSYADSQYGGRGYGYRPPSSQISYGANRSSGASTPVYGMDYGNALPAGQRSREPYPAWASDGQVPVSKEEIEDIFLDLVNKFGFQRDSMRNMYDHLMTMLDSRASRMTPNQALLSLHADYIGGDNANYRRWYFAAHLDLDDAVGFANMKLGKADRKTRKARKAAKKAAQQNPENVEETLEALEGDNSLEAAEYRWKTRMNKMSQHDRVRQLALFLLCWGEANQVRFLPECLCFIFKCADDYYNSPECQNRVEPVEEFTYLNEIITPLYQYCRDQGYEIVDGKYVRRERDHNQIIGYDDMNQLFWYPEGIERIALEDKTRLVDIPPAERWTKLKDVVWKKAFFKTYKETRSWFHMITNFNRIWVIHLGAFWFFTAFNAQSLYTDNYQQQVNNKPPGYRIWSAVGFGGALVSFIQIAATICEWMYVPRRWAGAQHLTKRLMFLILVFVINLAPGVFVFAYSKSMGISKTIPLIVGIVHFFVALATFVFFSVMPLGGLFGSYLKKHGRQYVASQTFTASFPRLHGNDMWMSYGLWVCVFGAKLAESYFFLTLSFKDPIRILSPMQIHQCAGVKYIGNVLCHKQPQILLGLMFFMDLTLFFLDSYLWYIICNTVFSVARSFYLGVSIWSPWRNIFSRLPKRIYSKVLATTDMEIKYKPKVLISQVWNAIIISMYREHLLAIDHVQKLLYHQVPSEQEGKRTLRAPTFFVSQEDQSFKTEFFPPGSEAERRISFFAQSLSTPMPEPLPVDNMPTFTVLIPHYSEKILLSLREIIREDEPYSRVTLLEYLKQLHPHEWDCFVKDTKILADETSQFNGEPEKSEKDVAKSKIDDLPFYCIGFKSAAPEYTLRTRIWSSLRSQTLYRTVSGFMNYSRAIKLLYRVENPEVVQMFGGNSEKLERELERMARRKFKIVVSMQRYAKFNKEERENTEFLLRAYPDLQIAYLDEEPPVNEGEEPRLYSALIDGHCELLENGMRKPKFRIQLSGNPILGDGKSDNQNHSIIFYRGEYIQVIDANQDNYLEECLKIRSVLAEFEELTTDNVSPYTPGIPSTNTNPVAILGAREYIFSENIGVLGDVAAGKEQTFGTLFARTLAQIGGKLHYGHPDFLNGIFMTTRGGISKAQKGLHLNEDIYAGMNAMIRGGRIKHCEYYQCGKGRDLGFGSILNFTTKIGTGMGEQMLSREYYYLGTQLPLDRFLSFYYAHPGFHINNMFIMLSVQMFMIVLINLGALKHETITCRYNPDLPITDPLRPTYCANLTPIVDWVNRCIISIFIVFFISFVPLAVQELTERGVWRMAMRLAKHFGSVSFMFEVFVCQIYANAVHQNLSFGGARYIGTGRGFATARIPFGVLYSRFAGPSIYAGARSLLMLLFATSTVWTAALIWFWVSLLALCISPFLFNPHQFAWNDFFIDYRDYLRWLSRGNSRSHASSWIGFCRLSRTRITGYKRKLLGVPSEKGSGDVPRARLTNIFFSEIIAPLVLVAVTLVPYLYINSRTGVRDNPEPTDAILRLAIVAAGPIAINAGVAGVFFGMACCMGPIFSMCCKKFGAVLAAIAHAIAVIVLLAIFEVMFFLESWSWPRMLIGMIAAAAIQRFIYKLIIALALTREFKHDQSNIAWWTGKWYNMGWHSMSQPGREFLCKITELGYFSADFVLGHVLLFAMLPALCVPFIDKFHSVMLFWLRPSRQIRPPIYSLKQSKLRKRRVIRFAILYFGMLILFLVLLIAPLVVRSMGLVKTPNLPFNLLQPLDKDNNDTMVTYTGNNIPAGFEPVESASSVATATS
Chain of β-(1,3)-D-glucan synthase of clinical isolate 32458 (Q4WLT4 1-1904): as above

## CC[C@H](C)C[C@H](C)CCCCCCCCC(=O)N[C@H]1C[C@@H](O)[C@@H](NCCN)NC(=O)[C@@H]2[C@@H](O)CCN2C(=O)[C@H]([C@H](O)CCN)NC(=O)[C@H]([C@H](O)[C@@H](O)c2ccc(O)cc2)NC(=O)[C@@H]2C[C@@H](O)CN2C(=O)[C@H]([C@@H](C)O)NC1=O [CAS, caspofungin]
fks1 expression in RG101
  fks1 expression levels, CAS-induced vs uninduced: No significant differences
A. fumigatus ATCC 13073 [1]; 24 h, Fig 1B
  Drug susceptibility testing result, ATCC 13073: 0.12 µg/mL
A. fumigatus ATCC 13073 [1]; ATCC 13073, fks1 WT
  MEC (minimum effective concentration): 0.12 µg/mL
[2]
  MEC (minimum effective concentration): 16 µg/mL
[3]
  IC50: > 9.15 µM
[4]
  IC50: ~4.57 µM
[5]
  IC50: > 9.15 µM
A. fumigatus RG101
  Cell wall ultrastructure of RG101 grown in the presence of CAS: did not show any ultrastructural cell wall damage
A. fumigatus ATCC 13073 [6]
  Cell wall ultrastructure of ATCC 13073 grown in the presence of CAS: extensive damage
[7]
  MEC (minimum effective concentration): 4 µg/mL
[8]
  MEC (minimum effective concentration): 16 µg/mL
[9]
  MEC (minimum effective concentration): 16 µg/mL
[10]
  MEC (minimum effective concentration): 16 µg/mL
[11]
  MEC (minimum effective concentration): 16 µg/mL
